Reference: US20060128727A1, “Fungicidal mixtures based on a triazolopyrimidine derivative” (priority 2003, published 2006)

System: Plasmopara viticola
Test: Activity against peronospora of grapevines caused by Plasmopara viticola (protective spray test on potted vines)
Type: in vivo
Conditions: individual active compound, vines cultivar Riesling
Description: The active compounds, separately or jointly, were prepared as a stock solution comprising 0.25% by weight of active compound in acetone or DMSO. 1% by weight of the emulsifier Uniperol® EL (wetting agent having emulsifying and dispersant action based on ethoxylated alkylphenols) was added to this solution, and the mixture was diluted with water to the desired concentration. USE EXAMPLE
Leaves of potted vines of the cultivar “Riesling” were sprayed to runoff point with an aqueous suspension having the concentration of active compound stated below. The next day, the undersides of the leaves were inoculated with an aqueous zoospore suspension of Plasmopara viticola. The grapevines were then initially placed in a water-vapor-saturated chamber at 24° C. for 48 hours and then in a greenhouse at 20-30° C. for 5 days. After this period of time, the plants were again placed in a humid chamber for 16 hours to promote sporangiophore eruption. The extent of the development of the disease on the undersides of the leaves was then determined visually.
The visually determined percentages of infected leaf areas were converted into efficacies in % of the untreated control:
The efficacy (E) is calculated as follows using Abbot's formula: E=(1−α/β)·100 • α corresponds to the fungicidal infection of the treated plants in % and • β corresponds to the fungicidal infection of the untreated (control) plants in %
An efficacy of 0 means that the infection level of the treated plants corresponds to that of the untreated control plants; an efficacy of 100 means that the treated plants were not infected.
The expected efficacies of mixtures of active compounds were determined using Colby's formula (Colby, S. R. “Calculating synergistic and antagonistic responses of herbicide combinations”, Weeds, 15, 20-22, 1967) and compared with the observed efficacies.
Colby's Formula: E=x+y−x·y/100 • E expected efficacy, expressed in % of the untreated control, when using the mixture of the active compounds A and B at the concentrations a and b • x efficacy, expressed in % of the untreated control, when using the active compound A at the concentration a • y efficacy, expressed in % of the untreated control, when using the active compound B at the concentration b

Row | SMILES | Efficacy in % of the untreated control (4 ppm in the spray liquor) | Efficacy in % of the untreated control (1 ppm in the spray liquor) | Efficacy in % of the untreated control (63 ppm in the spray liquor)
1 | CC1CCN(c2c(-c3c(F)cccc3Cl)c(Cl)nc3ncnn23)CC1 [Comparison A] | 0% | – | –
2 | C[C@H](Nc1c(-c2c(F)cc(F)cc2F)c(Cl)nc2ncnn12)C(F)(F)F [Comparison B] | 11% | – | –
3 | CC1CCN(c2c(-c3c(F)cc(F)cc3F)c(Cl)nc3ncnn23)CC1 [I, 5-chloro-7-(4-methylpiperidin-1-yl)-6-(2,4,6-trifluorophenyl)-[1,2,4]triazolo[1,5-a]pyrimidine] | 56% | – | –
4 | Cc1cc(C)nc(Nc2ccccc2)n1 [II-1, (4,6-dimethylpyrimidin-2-yl)phenylamine] | 0% | 0% | 0%
5 | Cc1cc(C2CC2)nc(Nc2ccccc2)n1 [II-2, (4-cyclopropyl-6-methylpyrimidin-2-yl)phenylamine] | 0% | 0% | 0%
6 | CC#Cc1cc(C)nc(Nc2ccccc2)n1 [II-3, (4-methyl-6-prop-1-ynylpyrimidin-2-yl)phenylamine] | 0% | 0% | 0%
